Experimental data published in patent US9169310B2 (Zealand Pharma A/S, priority 2010, dated 2015).
Starred links: 1 amine or outer side, 2 acyl side, 3 side chain; linkers in the order of their positions; H or OH if unused. Non-standard residues stand in square brackets, D forms with d. Residues, ends and D or L forms follow the SMILES beside them. Groups on a side chain read outwards from the residue. *: point of attachment. γGlu = O=C(O)[C@H](CCC(=O)[*:2])N[*:1]; Palmitoyl = CCCCCCCCCCCCCCCC(=O)*; Aib = CC(C)(N)C(=O)O

Tests used:
human GLP-1R = target: T1, human GLP-1R (Homo sapiens, UniProt P43220); test: GLP-1 receptor efficacy assay (cAMP formation, FlashPlate cAMP kit); assay type: cell-based; settings: HEK293 cells expressing human GLP-1R; cAMP formed, 15 min at 37° C.
T1 construct: expressed in transfected cells
Description: (§1) The 5′-end primers additionally encoded a near Kozak consensus sequence to ensure efficient translation.
(§2) 48 hr after transfection, cells were seeded for limited dilution cloning and selected with 1 mg/ml G418 in the culture medium.

human glucagon-R = target: T2, human glucagon-R (Homo sapiens, UniProt P47871); test: Glucagon receptor efficacy assay (cAMP formation, FlashPlate cAMP kit); assay type: cell-based; settings: HEK293 cells expressing human glucagon-R; cAMP formed, 15 min at 37° C.; read-out: EC50 nM) GluR
T2 construct: expressed in transfected cells
Description: as §1, §2

T1 sequence (P43220 24-463): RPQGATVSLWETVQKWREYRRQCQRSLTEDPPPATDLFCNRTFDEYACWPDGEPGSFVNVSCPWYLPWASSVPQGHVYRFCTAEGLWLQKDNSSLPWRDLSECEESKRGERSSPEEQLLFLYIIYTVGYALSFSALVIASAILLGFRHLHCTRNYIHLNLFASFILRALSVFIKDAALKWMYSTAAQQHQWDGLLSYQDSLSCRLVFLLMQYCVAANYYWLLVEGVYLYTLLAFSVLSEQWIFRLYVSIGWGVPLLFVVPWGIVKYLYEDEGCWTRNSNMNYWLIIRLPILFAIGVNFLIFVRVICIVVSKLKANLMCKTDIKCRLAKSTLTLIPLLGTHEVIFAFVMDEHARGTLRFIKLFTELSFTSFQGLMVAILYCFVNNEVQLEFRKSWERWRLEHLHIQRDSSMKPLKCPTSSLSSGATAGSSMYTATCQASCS
T2 sequence (P47871 26-477): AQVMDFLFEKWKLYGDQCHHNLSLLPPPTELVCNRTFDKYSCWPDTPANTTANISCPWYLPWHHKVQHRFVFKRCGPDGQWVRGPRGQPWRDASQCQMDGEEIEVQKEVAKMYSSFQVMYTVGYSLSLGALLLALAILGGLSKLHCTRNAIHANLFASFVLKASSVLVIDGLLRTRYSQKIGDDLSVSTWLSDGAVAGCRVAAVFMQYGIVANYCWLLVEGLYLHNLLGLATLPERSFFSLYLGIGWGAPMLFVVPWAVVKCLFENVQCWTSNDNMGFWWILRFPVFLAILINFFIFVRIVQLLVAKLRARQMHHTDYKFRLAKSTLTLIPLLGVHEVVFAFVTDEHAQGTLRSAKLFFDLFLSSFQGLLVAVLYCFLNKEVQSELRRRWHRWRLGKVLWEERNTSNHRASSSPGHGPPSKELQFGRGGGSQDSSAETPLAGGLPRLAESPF

EC50 (human GLP-1R): 0.21 nM | EC50 (human glucagon-R): 26 nM
SMILES: CCCCCCCCCCCCCCCC(=O)N[C@@H](CCC(=O)NCCCC[C@H](NC(=O)[C@H](CO)NC(=O)[C@H](CC(=O)O)NC(=O)[C@H](CC(C)C)NC(=O)[C@H](Cc1ccc(O)cc1)NC(=O)[C@H](CCCCN)NC(=O)[C@H](CO)NC(=O)[C@H](Cc1ccc(O)cc1)NC(=O)[C@H](CC(=O)O)NC(=O)[C@H](CO)NC(=O)[C@@H](NC(=O)[C@H](Cc1ccccc1)NC(=O)[C@@H](NC(=O)CNC(=O)CNC(=O)C(C)(C)NC(=O)[C@@H](N)Cc1c[nH]cn1)[C@@H](C)O)[C@@H](C)O)C(=O)N[C@@H](C)C(=O)N[C@@H](C)C(=O)N[C@@H](Cc1c[nH]cn1)C(=O)N[C@@H](CC(=O)O)C(=O)N[C@@H](Cc1ccccc1)C(=O)N[C@H](C(=O)N[C@@H](CCC(=O)O)C(=O)N[C@@H](Cc1c[nH]c2ccccc12)C(=O)N[C@@H](CC(C)C)C(=O)N[C@@H](CC(C)C)C(=O)N[C@@H](CO)C(=O)N[C@@H](C)C(N)=O)C(C)C)C(=O)O [Compound 20] (H-H[Aib]GGTFTSDYSKYLDSK([γGlu-Palmitoyl])AAHDFVEWLLSA-NH2)
